Where “and” joins values, the source holds several entries; their conditions need not be identical. Equal entries are not always repeated. Where two headings read alike, the source gives them in different places.
Assays:
[1] = tested on: H460 cells; assay: Flow cytometry detection for cell cycle, H460; assay type: cell-based, human; conditions: for G0/G1 / G2/M / S: single experiments (20200711, 20200810, 20200812)
Experimental: (§1) To investigate the effects of compounds e4 and e12 on various phases of the cell cycle, PC-9 cells were treated with compound e4 or e12 of various concentrations for 24 h, and H460 cells were treated with compound e4 or e12 of various concentrations for 12 h.
(§2) PC-9 or H460 (2 × 10^5–3 × 10^5/well) cells were seeded in six-well plates for 24 h, and then treated with 0.1% DMSO (as control), various concentrations of either compound e4 or e12 for 24 h (PC-9) or 12 h (H460), respectively. The treated cells were harvested, washed with PBS, and then stained using the cell-cycle staining kit according to the manufacturer’s manual. The distribution of cell-cycle phases with different DNA contents was determined by flow cytometry (BD LSRFortessa™ Flow Cytometer) and analyzed using ModFit LT software.

[2] = tested on: PC-9 cells; assay: Flow cytometry detection for cell cycle, PC-9; assay type: cell-based, human; conditions: for G0/G1 / G2/M / S: single repeats (Repeat 1-3)
Experimental: as §1, §2

[3] = tested on: AKT phosphorylation (S473) in H460 cells; assay: Western blot, p-AKT/AKT in H460; conditions: for p-AKT/AKT: band density ratio; for p-AKT/AKT relative to DMSO: ratio normalised to DMSO
Experimental: (§3) We also performed western blot analysis to evaluate the impact of e4 and e12 on EGFR signaling in PC-9 and H460 cells.
(§4) H460 cells were seeded in six-well plates with serum-free medium overnight, and then treated complete medium containing 0.1% DMSO, various concentrations (0.1, 1 and 10 μM) of either compound e4 or e12 for 2 h, respectively. […] Then the H460 cells were treated with complete medium containing EGF (10 ng/ml) for 5 min. Then the cells were harvested and washed with PBS, centrifuged, resuspended in 100–200 μl of RIPA lysis buffer containing Protease and Phosphatase Inhibitor Cocktail (1X), and then centrifuged for 5 min at 12,000 rpm at 4°C. The supernatant was used for protein analysis. […] Then the membrane was washed 5 min (X3) and incubated at 1:3,000 dilution of anti-rabbit secondary antibodies or 1:1,000 dilution of anti-mouse secondary antibodies for 1 h at RT. After washing with TBST 5 min (X3), protein bands were developed by chemiluminescence. The protein levels were quantified by the gray values of the bands in the resulting images by ImageJ, and the control group was used as the standard. […] The PC-9 cells were harvested and analyzed as above.

[4] = tested on: H1975 cells; assay: CCK-8 antiproliferation assay, H1975; conditions: for Inhibitory efficacy: H1975 cells
[5] = biological target: wild-type EGFR (Homo sapiens, UniProt P00533); assay: EGFR kinase assay (ELISA); conditions: for A450: raw ELISA absorbance
[6] = tested on: A549 cells; assay: CCK-8 antiproliferation assay, A549; conditions: for Inhibitory efficacy: A549 cells
[7] = tested on: EGFR phosphorylation (Tyr1068) in PC-9 cells; assay: Western blot, p-EGFR/EGFR in PC-9; conditions: for p-EGFR/EGFR: band density ratio; for p-EGFR/EGFR relative to DMSO: ratio normalised to DMSO = 1
Experimental: as §3, §4

[8] = tested on: AKT phosphorylation (S473) in PC-9 cells; assay: Western blot, p-AKT/AKT in PC-9; conditions: for p-AKT/AKT: band density ratio; for p-AKT/AKT relative to DMSO: ratio normalised to DMSO = 1
Experimental: as §3, §4

[9] = tested on: H460 cells; assay: CCK-8 antiproliferation assay, H460; conditions: given as fraction, Repeat 1-3; for Inhibitory efficacy: H460 cells
[10] = tested on: EGFR phosphorylation (Tyr1068) in H460 cells; assay: Western blot, p-EGFR/EGFR in H460; conditions: for p-EGFR/EGFR: band density ratio; for p-EGFR/EGFR relative to DMSO: ratio normalised to DMSO
Experimental: as §3, §4

[11] = tested on: PC-9 cells; assay: Hoechst 33342 staining for cell apoptosis; assay type: cell-based, human; conditions: PC-9, various concentrations, 48 h, vs 0.1% DMSO
Experimental: To further verify the impact of compounds e4 and e12 on apoptosis of NSCLC cells, PC-9 cells were treated with either compound e4 or e12 at various concentrations for 48 h and then stained with dye Hoechst 33342.
PC-9 cells were seeded in 96-well plates, then treated with 0.1% DMSO (as control) or various concentrations of compound e4 or e12 for 48 h. Culture medium from the cells was removed and replaced with medium containing dye Hoechst 33342. Cells were incubated at 37°C for 5–15 min, washed with PBS twice, and then observed and imaged under the Nikon Ti-U microscope.

[12] = 1uM, given as fraction, Repeat 1-3
[13] = 2uM, given as fraction, Repeat 1-3
[14] = 4uM, given as fraction, Repeat 1-3
[15] = 8uM, given as fraction, Repeat 1-3
[16] = 16uM, given as fraction, Repeat 1-3

Chain of wild-type EGFR (P00533 25-1210): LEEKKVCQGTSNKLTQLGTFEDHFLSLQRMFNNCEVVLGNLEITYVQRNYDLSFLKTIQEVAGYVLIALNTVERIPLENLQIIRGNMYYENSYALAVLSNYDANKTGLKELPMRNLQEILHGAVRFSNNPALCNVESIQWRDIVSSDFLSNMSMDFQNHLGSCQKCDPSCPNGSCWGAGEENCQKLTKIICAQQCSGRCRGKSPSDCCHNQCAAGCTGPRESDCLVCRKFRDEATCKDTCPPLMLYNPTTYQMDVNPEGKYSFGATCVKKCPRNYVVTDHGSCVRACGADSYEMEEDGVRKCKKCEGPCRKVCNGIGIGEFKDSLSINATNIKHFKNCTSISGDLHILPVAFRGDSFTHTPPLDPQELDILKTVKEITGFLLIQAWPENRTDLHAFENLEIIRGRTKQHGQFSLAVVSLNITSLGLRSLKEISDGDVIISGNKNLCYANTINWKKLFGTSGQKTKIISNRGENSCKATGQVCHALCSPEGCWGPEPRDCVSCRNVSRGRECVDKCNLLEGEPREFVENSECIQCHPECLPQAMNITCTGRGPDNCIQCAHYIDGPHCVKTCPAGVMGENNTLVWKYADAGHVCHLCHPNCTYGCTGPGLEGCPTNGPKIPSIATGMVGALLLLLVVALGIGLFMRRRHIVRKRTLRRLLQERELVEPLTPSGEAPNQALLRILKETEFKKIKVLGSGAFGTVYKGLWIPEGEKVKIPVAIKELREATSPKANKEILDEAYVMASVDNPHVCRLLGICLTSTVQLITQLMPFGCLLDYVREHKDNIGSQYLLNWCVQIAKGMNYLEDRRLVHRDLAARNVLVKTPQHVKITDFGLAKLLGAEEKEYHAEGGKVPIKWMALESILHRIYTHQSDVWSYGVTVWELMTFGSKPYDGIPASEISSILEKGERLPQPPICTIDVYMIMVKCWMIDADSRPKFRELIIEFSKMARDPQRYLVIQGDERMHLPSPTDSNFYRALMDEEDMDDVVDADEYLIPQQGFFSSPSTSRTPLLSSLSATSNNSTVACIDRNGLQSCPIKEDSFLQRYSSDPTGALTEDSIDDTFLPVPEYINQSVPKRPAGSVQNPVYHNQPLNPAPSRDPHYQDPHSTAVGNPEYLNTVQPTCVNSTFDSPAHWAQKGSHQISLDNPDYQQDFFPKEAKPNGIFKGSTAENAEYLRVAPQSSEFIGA

Structure (SMILES): COCCOc1cc2ncnc(Nc3cccc(-c4cn(-c5ccc(C)cc5)nn4)c3)c2cc1OCCOC [e12, [6,7-Bis-(2-methoxy-ethoxy)-quinazolin-4-yl]-[3-(1-p-tolyl-1H-[1,2,3]triazol-4-yl)-phenyl]-amine]
- G0/G1 ([1]; H460, 4uM): 46.77% and 59.95%
- G2/M ([1]; H460, 4uM): 19.08% and 18.32% and 13.33%
- S ([1]; H460, 4uM): 34.15% and 35.36% and 26.72%
- G0/G1 ([1]; H460, 8uM): 49.59% and 63.38%
- G2/M ([1]; H460, 8uM): 16.88% and 18.32% and 11.47%
- S ([1]; H460, 8uM): 33.54% and 35.36% and 25.15%
- G0/G1 ([1]; H460, 12uM): 47.32% and 46.51% and 62.09%
- S ([1]; H460, 12uM): 32.63% and 19.41% and 25.2%
- percentage of cells in the G0/G1 phase ([1]; H460, various concentrations, 12 h): induced higher percentages
- G0/G1 ([2]; PC-9, 4uM): 56.16 and 54.85 and 57.63
- G2/M ([2]; PC-9, 4uM): 17.84 and 17.98 and 15.19
- S ([2]; PC-9, 4uM): 26.01 and 27.17 and 27.19
- G0/G1 ([2]; PC-9, 8uM): 53.08 and 54.06 and 56.12
- G2/M ([2]; PC-9, 8uM): 20.06 and 19.34 and 16.67
- S ([2]; PC-9, 8uM): 26.86 and 26.6 and 27.1
- G0/G1 ([2]; PC-9, 12uM): 56.88 and 57.79 and 60.22
- G2/M ([2]; PC-9, 12uM): 21.27 and 20.78 and 17.44
- S ([2]; PC-9, 12uM): 21.85 and 21.43 and 22.34
- percentage of cells in the G0/G1 phase ([2]; PC-9, various concentrations, 24 h): induced higher percentages
- p-AKT/AKT ([3]; H460, 0.1 uM): 1.267
- p-AKT/AKT relative to DMSO ([3]; H460, 0.1 uM): 1.274
- p-AKT/AKT ([3]; H460, 1 uM): 0.9055
- p-AKT/AKT relative to DMSO ([3]; H460, 1 uM): 0.9102
- p-AKT/AKT ([3]; H460, 10 uM): 0.594
- p-AKT/AKT relative to DMSO ([3]; H460, 10 uM): 0.5972
- phosphorylation of AKT (western blot) ([3]; H460, especially at 10 μM): suppressed
- Inhibitory efficacy [4, 12]: 0.1624 and 0.1374
- Inhibitory efficacy [4, 13]: 0.2034 and 0.2177
- Inhibitory efficacy [4, 14]: 0.2052 and 0.2481
- Inhibitory efficacy [4, 15]: 0.4158 and 0.4836
- Inhibitory efficacy [4, 16]: 0.8709 and 0.8763
- IC50 ([4]; Homo sapiens, NCI-H1975, 48 h, read-out: IC50 (μM) H1975, CCK-8, 48 h, average ± SD of three independent experiments): < 10 µM
- inhibition at 1 µM ([4]; Homo sapiens, NCI-H1975, read-out: Inhibitory efficacy, H1975 cells, 1uM, given as fraction, Repeat 1-3): 18.4%
- inhibition at 2 µM ([4]; Homo sapiens, NCI-H1975, read-out: Inhibitory efficacy, H1975 cells, 2uM, given as fraction, Repeat 1-3): 28.9%
- inhibition at 4 µM ([4]; Homo sapiens, NCI-H1975, read-out: Inhibitory efficacy, H1975 cells, 4uM, given as fraction, Repeat 1-3): 23.2%
- inhibition at 8 µM ([4]; Homo sapiens, NCI-H1975, read-out: Inhibitory efficacy, H1975 cells, 8uM, given as fraction, Repeat 1-3): 40.7%
- inhibition at 16 µM ([4]; Homo sapiens, NCI-H1975, read-out: Inhibitory efficacy, H1975 cells, 16uM, given as fraction, Repeat 1-3): 87.6%
- IC50 ([4]; read-out: IC50 (μM) H1975, CCK-8, 48 h, average ± SD of three independent experiments): 7.25 ± 0.45 µM
- IC50 ([5]; IC50 (μM) EGFR, ELISA, 3 μmol/L ATP): 1.76 µM
- inhibition at 100 fM ([5]; concentration 0.0001 nM (reference for normalisation), one value per replicate column): 0%
- inhibition at 30 pM ([5]; concentration 0.03 nM, one value per replicate column): 8.63%
- Inhibition ([5]; concentration 0.03 nM, one value per replicate column, 3e-05 µM): 6.151
- inhibition at 0.0003 µM ([5]; concentration 0.3 nM, one value per replicate column): 9.04%
- Inhibition ([5]; concentration 0.3 nM, one value per replicate column, 0.0003 µM): 14.0873
- inhibition at 0.003 µM ([5]; concentration 3 nM, one value per replicate column): 9.24%
- Inhibition ([5]; concentration 3 nM, one value per replicate column, 0.003 µM): 16.0714
- inhibition at 0.03 µM ([5]; concentration 30 nM, one value per replicate column): 16.1%
- Inhibition ([5]; concentration 30 nM, one value per replicate column, 0.03 µM): 18.4524
- inhibition at 0.3 µM ([5]; concentration 300 nM, one value per replicate column): 20.3%
- Inhibition ([5]; concentration 300 nM, one value per replicate column, 0.3 µM): 32.1429
- inhibition at 3 µM ([5]; concentration 3000 nM, one value per replicate column): 50.8%
- Inhibition ([5]; concentration 3000 nM, one value per replicate column, 3 µM): 50.5952
- inhibition at 30 µM ([5]; concentration 30000 nM, one value per replicate column): 85.5%
- Inhibition ([5]; concentration 30000 nM, one value per replicate column, 30 µM): 85.9127
- A450 ([5]; concentration 0.0001 nM): 0.655 and 0.663
- A450 ([5]; concentration 0.03 nM): 0.612 and 0.632
- A450 ([5]; concentration 0.3 nM): 0.61 and 0.592
- A450 ([5]; concentration 3 nM): 0.609 and 0.582
- A450 ([5]; concentration 30 nM): 0.575 and 0.57
- A450 ([5]; concentration 300 nM): 0.554 and 0.501
- A450 ([5]; concentration 3000 nM): 0.402 and 0.408
- A450 ([5]; concentration 30000 nM): 0.229 and 0.23
- Inhibitory efficacy [6, 12]: 0.1461 and 0.1139
- Inhibitory efficacy [6, 13]: 0.3261 and 0.1967
- Inhibitory efficacy [6, 14]: 0.4378 and 0.3806
- Inhibitory efficacy [6, 15]: 0.5646 and 0.5114
- Inhibitory efficacy [6, 16]: 0.7887 and 0.7821
- IC50 ([6]; Homo sapiens, A549, 48 h, read-out: IC50 (μM) A549, CCK-8, 48 h, average ± SD of three independent experiments): < 10 µM
- inhibition at 1 µM ([6]; Homo sapiens, A549, read-out: Inhibitory efficacy, A549 cells, 1uM, given as fraction, Repeat 1-3): 9.61%
- inhibition at 2 µM ([6]; Homo sapiens, A549, read-out: Inhibitory efficacy, A549 cells, 2uM, given as fraction, Repeat 1-3): 26.8%
- inhibition at 4 µM ([6]; Homo sapiens, A549, read-out: Inhibitory efficacy, A549 cells, 4uM, given as fraction, Repeat 1-3): 37.9%
- inhibition at 8 µM ([6]; Homo sapiens, A549, read-out: Inhibitory efficacy, A549 cells, 8uM, given as fraction, Repeat 1-3): 51.9%
- inhibition at 16 µM ([6]; Homo sapiens, A549, read-out: Inhibitory efficacy, A549 cells, 16uM, given as fraction, Repeat 1-3): 78.5%
- IC50 ([6]; read-out: IC50 (μM) A549, CCK-8, 48 h, average ± SD of three independent experiments): 5.91 ± 0.73 µM
- p-EGFR/EGFR ([7]; PC-9, 0.1 uM): 1.065
- p-EGFR/EGFR relative to DMSO ([7]; PC-9, 0.1 uM): 0.9518
- p-EGFR/EGFR ([7]; PC-9, 1 uM): 0.9522
- p-EGFR/EGFR relative to DMSO ([7]; PC-9, 1 uM): 0.8509
- p-EGFR/EGFR ([7]; PC-9, 10 uM): 0.4177
- p-EGFR/EGFR relative to DMSO ([7]; PC-9, 10 uM): 0.3732
- phosphorylation of EGFR (western blot) ([7]; PC-9, especially at 10 μM): suppressed
- p-AKT/AKT ([8]; PC-9, 0.1 uM): 0.5916
- p-AKT/AKT relative to DMSO ([8]; PC-9, 0.1 uM): 0.5679
- p-AKT/AKT ([8]; PC-9, 1 uM): 0.4098
- p-AKT/AKT relative to DMSO ([8]; PC-9, 1 uM): 0.3934
- p-AKT/AKT ([8]; PC-9, 10 uM): 0.7398
- p-AKT/AKT relative to DMSO ([8]; PC-9, 10 uM): 0.7102
- phosphorylation of AKT (western blot) ([8]; PC-9, especially at 10 μM): suppressed
- Inhibitory efficacy ([9]; 1uM): 0.2117 and 0.1598
- Inhibitory efficacy ([9]; 2uM): 0.3397 and 0.3411
- Inhibitory efficacy ([9]; 4uM): 0.5452 and 0.4421
- Inhibitory efficacy ([9]; 8uM): 0.667 and 0.5743
- Inhibitory efficacy ([9]; 16uM): 0.9091 and 0.887
- inhibition at 1 µM ([9]; Homo sapiens, NCI-H460, read-out: Inhibitory efficacy, H460 cells, 1uM): 16.7%
- inhibition at 2 µM ([9]; Homo sapiens, NCI-H460, read-out: Inhibitory efficacy, H460 cells, 2uM): 36.8%
- inhibition at 4 µM ([9]; Homo sapiens, NCI-H460, read-out: Inhibitory efficacy, H460 cells, 4uM): 58.9%
- inhibition at 8 µM ([9]; Homo sapiens, NCI-H460, read-out: Inhibitory efficacy, H460 cells, 8uM): 65.1%
- inhibition at 16 µM ([9]; Homo sapiens, NCI-H460, read-out: Inhibitory efficacy, H460 cells, 16uM): 88.9%
- p-EGFR/EGFR ([10]; H460, 0.1 uM): 0.7896
- p-EGFR/EGFR relative to DMSO ([10]; H460, 0.1 uM): 0.9489
- p-EGFR/EGFR ([10]; H460, 1 uM): 0.75
- p-EGFR/EGFR relative to DMSO ([10]; H460, 1 uM): 0.9013
- p-EGFR/EGFR ([10]; H460, 10 uM): 0.166
- p-EGFR/EGFR relative to DMSO ([10]; H460, 10 uM): 0.1995
- phosphorylation of EGFR (western blot) ([10]; H460, especially at 10 μM): suppressed
- apoptotic morphology, Hoechst 33342 staining [11]: exhibited features typical of apoptosis
